# PubChem BioAssay (NCI)
#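 Results reflect a 48-hour exposure of cells in 96-well plates to compound at five concentrations. Here, GI50 denotes the concentration required for 50% inhibition of growth. TGI: concentration producing complete growth inhibition.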
# What was measured:
# Test in all cases: NCI anticancer screen, dose series, 48 h
# HOP-92 NSCLC = system: HOP-92 NSCLC
# SR leukemia = system: SR leukemia
# MALME-3M melanoma = system: MALME-3M melanoma
# A549 NSCLC = system: A549 NSCLC
# OVCAR-8 ovarian = system: OVCAR-8 ovarian
# SN12C renal = system: SN12C renal
# HL-60(TB) leukemia = system: HL-60(TB) leukemia
# UO-31 renal = system: UO-31 renal
# U251 CNS = system: U251 CNS
# RXF 393 renal = system: RXF 393 renal
SMILES,TGI (HOP-92 NSCLC) [µM],TGI (SR leukemia) [µM],TGI (MALME-3M melanoma) [µM],TGI (A549 NSCLC) [µM],TGI (OVCAR-8 ovarian) [µM],TGI (SN12C renal) [µM],GI50 (SR leukemia) [µM],GI50 (MALME-3M melanoma) [µM],GI50 (HL-60(TB) leukemia) [µM],TGI (HL-60(TB) leukemia) [µM],GI50 (A549 NSCLC) [µM],GI50 (OVCAR-8 ovarian) [µM],GI50 (UO-31 renal) [µM],TGI (UO-31 renal) [µM],GI50 (U251 CNS) [µM],TGI (U251 CNS) [µM],GI50 (SN12C renal) [µM],GI50 (HOP-92 NSCLC) [µM],GI50 (RXF 393 renal) [µM],TGI (RXF 393 renal) [µM]
O=C(N/N=C1/C(=O)N(c2ccc(Cl)cc2Cl)C(=O)C(=O)C1c1nc2ccccc2o1)c1ccccc1O (stereo not drawn),93.5,> 100,78.6,> 100,> 100,> 100,,,,,,,,,,,,,,
Cc1cn2c(/C=C3\C(=O)Nc4ccc(O)cc43)c(-c3ccc(Cl)cc3)nc2s1,,7.63,42,> 100,> 100,25.5,2.59,14.3,14.4,40.7,19.1,18.4,5.37,59.9,14.3,28.9,10.4,,,
COc1cccc2c1C(=O)c1c(O)c3c(c(O)c1C2=O)CC(O)(/C(C)=N/NC(=O)CCC(=O)N/N=C(\C)C1(O)Cc2c(O)c4c(c(O)c2C(OC2CC(N)C(O)C(C)O2)C1)C(=O)c1c(OC)cccc1C4=O)CC3OC1CC(N)C(O)C(C)O1 (stereo not drawn),,,1.12,1.81,> 50,> 50,,0.285,0.397,4.23,0.414,0.306,0.158,1.09,,,0.234,0.438,0.376,1.35
CCC1C2C=CC(CC2)N1S(=O)(=O)c1ccc(C)cc1 (stereo not drawn),,72.3,73.4,> 100,,36.6,,,,19.5,,,,39.2,,,,,,
Cc1ccc(S(=O)(=O)N/N=C/c2oc(-c3ccncc3)c(-c3ccncc3)c2[N+](=O)[O-])cc1,,> 100,> 100,> 100,> 100,> 100,,,,> 100,,,,> 100,,> 100,,,,> 100
O=C1NC(=S)NNC12c1ccccc1-c1ccccc12,> 10,> 10,> 10,> 10,> 10,> 10,,,,> 10,,,,> 10,,> 10,,,,
O=C(O)CSc1n[nH]c(-c2ccccc2)n1,,,> 100,> 100,> 100,> 100,,,,> 100,,,,> 100,,> 100,,,,> 100
Cc1csc(Nc2nc(-c3cccc(Br)c3)nc(C(Cl)(Cl)Cl)n2)n1,6.16,,> 100,7.28,> 100,,,> 100,1.04,3.96,1.61,> 29.2,2.51,> 100,1.83,> 100,,1.1,1,4.04
c1ccc(SC2CCSc3ccccc3C2Sc2ccccc2)cc1 (stereo not drawn),> 100,,,> 100,> 100,> 100,,,,> 100,,,,> 100,,> 100,,,,
O=c1n(-c2ccccc2)c(=O)n2n1C1C=CC2C2C(C1)C2(Cl)Cl (stereo not drawn),,> 100,> 100,> 100,> 100,> 100,,,,> 100,,,,> 100,,> 100,,,,> 100
O=C1c2ccccc2C2(O)c3cc4ccccc4cc3OC12O (stereo not drawn),80.4,,> 100,> 100,> 100,> 100,,,,,,,,,,> 100,,,,97.6
C=CCCCCCCCCCCC1(O)C=CC2=[N+](CCCCCN=C(N)N)CCCN21 (stereo not drawn),0.759,,10.9,24.6,26.1,11.3,,2.52,,,5.06,7.24,17,36.5,1.49,13.9,,,3.19,19.3
CC(=O)n1c2c(c(=O)n1-c1ccccc1)S(=O)CCC2 (stereo not drawn),,22.8,> 100,> 100,> 100,> 100,,,,> 70,,,,> 100,,> 100,,,,> 68.4
COc1ccc(/C(=N\NC(=O)C(N)=O)C(c2ccc(OC)cc2)C2(O)C(=O)Nc3c(Cl)cccc32)cc1 (stereo not drawn),> 100,,> 100,> 100,> 100,> 100,,,,> 100,,,,> 100,,> 100,,,,> 100
O=C(CSc1nnc(-c2ccc(N=Cc3ccc(Cl)cc3)cc2)o1)Nc1ccc(Cl)cc1,,> 100,> 100,> 100,> 100,> 100,,,,> 100,,,,> 100,,> 100,,,,> 100
COc1ccc(-c2cc(-c3ccccc3)c(C#N)c(=O)n2C2OC(CO)C(O)C(O)C2O)cc1 (stereo not drawn),,> 100,> 100,> 100,> 100,> 100,,,,> 100,,,,> 100,,> 100,,,,> 100
CCOC(=O)C1(c2ccccc2)CCC(=O)CC1,> 100,,> 100,> 100,> 100,> 100,,,,> 100,,,,> 100,,> 100,,,,> 100
CC(=O)O[C@H]1CCC2[C@@H]3CCC4=C(O)c5nocc5C[C@]4(C)C3CC[C@@]21C (stereo partly drawn),> 100,,> 100,> 100,> 100,> 100,,,,,,,,> 100,,> 100,,,,> 100
CC(C)=CCc1cc(O)cc2c1OC(C=C(C)C)C1=C2C(=O)C2=C(NCCS2(=O)=O)C1=O (stereo not drawn),15.9,,0.834,6.83,8.71,2.02,,0.159,,,3.17,3.24,2.03,6.05,2.79,5.25,0.414,5.73,2.15,4.7
COc1ccc2oc(-c3cccnc3)cc(=O)c2c1,> 100,,> 100,,,> 100,,,,> 100,,,,69.2,,> 100,,,,> 100
